# Values quoted from earlier work, collected in publication PMC10329699, “Pharmacokinetics, biodistribution and toxicology of novel cell-penetrating peptides” (Scientific Reports, 2023).
# Like-named read-outs stand apart in the source and are kept apart here.
# Legend:
# [1] = literature values for comparison
# Description: Considering their smaller size (up to 30 amino acids in length), cationic and/or amphipathic CPPs have a greater potential to penetrate the BBB than other transport systems. […] For the sake of comparison, a control IgG, an IgG binding ...
molecule,measurement,setting,value
OC[C@H]1OC(O)[C@H](O)[C@@H](O)[C@@H]1O (stereo partly drawn) [glucose],"Clup (brain uptake coefficient), comparison values",[1],≈ 1 µl g^−1 s^−1
TAT,half-life (stability in human serum),in vitro at 37 °C in human serum,528 min
penetratin,half-life (stability in human serum),human,72 min
